Laboratory results: publication PMC9241959 (Chemical Science, 2022)

Molecular target: Phaseolus vulgaris erythroagglutinin (PHA-E) (Phaseolus vulgaris, UniProt P05088)
Assay: glycan microarray, fluorescence
Format: binding
Details: labelled compound: immobilised AEAB conjugate at reducing end

Phaseolus vulgaris erythroagglutinin (PHA-E), sequence (P05088 22-275 limits assumed): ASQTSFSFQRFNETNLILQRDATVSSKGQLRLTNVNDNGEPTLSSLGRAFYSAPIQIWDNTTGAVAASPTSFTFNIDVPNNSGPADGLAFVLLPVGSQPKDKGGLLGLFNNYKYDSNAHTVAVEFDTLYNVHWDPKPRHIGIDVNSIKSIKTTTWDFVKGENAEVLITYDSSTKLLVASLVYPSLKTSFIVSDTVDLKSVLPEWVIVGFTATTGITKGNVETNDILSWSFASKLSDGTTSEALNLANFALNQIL

SMILES: CC(=O)N[C@H]1[C@H](O[C@H]2[C@H](O)[C@@H](NC(C)=O)C(O)O[C@@H]2CO)O[C@H](CO)[C@@H](O[C@@H]2O[C@H](CO[C@H]3O[C@H](CO)[C@@H](O)[C@H](O)[C@@H]3O[C@@H]3O[C@H](CO)[C@@H](O)[C@H](O)[C@H]3NC(C)=O)[C@@H](O[C@@H]3O[C@H](CO)[C@@H](O)[C@H](O)[C@H]3NC(C)=O)[C@H](O[C@H]3O[C@H](CO)[C@@H](O)[C@H](O)[C@@H]3O[C@@H]3O[C@H](CO)[C@@H](O)[C@H](O)[C@H]3NC(C)=O)[C@@H]2O)[C@@H]1O (stereo partly shown) [compound 1, agalacto bisected N-glycan 1]
- RFU at 1 ug/mL lectin: 9197 RFU
